Laboratory results published in patent US20260265304A1, “PEPTIDE INHIBITORS OF FOCAL ADHESION KINASE ACTIVITY AND USES THEREOF” (Arizona Board of Regents on Behalf of the University of …, priority 2019, published 2026).
Where two headings read alike, the source gives them in different places. Positions of bridges follow the written chain, without caps; N, C: chain ends. Non-standard residues stand in square brackets, D forms with d. Residues, ends and D or L forms follow the SMILES beside them. R8 = C=CCCCCCC[C@@](C)(N)C(=O)O; R5 = C=CCCC[C@@](C)(N)C(=O)O; S5 = C=CCCC[C@](C)(N)C(=O)O

Columns and labels:
[1] = biological target: T1, FAK FAT domain (paxillin-FAT binding) (Homo sapiens, UniProt Q05397); experiment: Competition fluorescence polarization (FP) assay, inhibition of TAMRA-LD2 binding to FAT
T1 construct: FP Buffer containing 20 μM FAT and 0.1 μM TAMRA-LD2
T1 sequence (Q05397 914-1045 limits assumed): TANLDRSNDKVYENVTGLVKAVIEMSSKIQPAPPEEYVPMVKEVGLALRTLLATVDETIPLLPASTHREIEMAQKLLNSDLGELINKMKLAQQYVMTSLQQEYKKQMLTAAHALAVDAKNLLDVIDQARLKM
Method: The FP assay buffer used was 20 mM Tris, 200 mM NaCl, 0.05% β-me, 0.1% Triton X-100, 5% glycerol, and 1× Halt protease inhibitor cocktail. […] Bodipy TMR FP optical module (2100-4100) was used as the mirror.
Wells with no FAT were used as a baseline value which was subtracted from the raw values to produce ΔmP values. The plate was read at every hour for four hours to test for time differences in IC50. The titration data was processed through GraphPad Prism to produce a dose response curve and a calculated IC50 with standard error (SE). A four-parameter dose-response inhibition model was utilized and the bottom fit was constrained to the lower plateau of the curve. Ki was determined from the following calculation:
P0 is the concentration of free protein and KD is calculated from the saturation curve. 150 is calculated by the following equation:
where PT is the total protein concentration, LT is the total labeled-ligand concentration, P0 is the positive root of P0^2+(KD+LT)*P0−PT, PL0=P−P0, PL50=PL0/2, L0=LT-PL0, and L50=LT-PL50.

[2] = biological target: T2, FAK FAT domain (biotinylated Avitag-FAT protein) (Homo sapiens, UniProt Q05397); experiment: Surface plasmon resonance (SPR) binding to immobilised FAT protein; conditions: for binding and inhibitory properties (SPR/FP) in words, compared to 1907: SAR discussion of SPR and FP data; for Kd: FAT protein immobilised, peptide 200 μM-0.01 μM, 1:1 binding model
T2 construct: biotinylated Avitag-FAT protein was diluted in running buffer
T2 sequence (Q05397 914-1045 limits assumed): T1 sequence (Q05397 914-1045 limits assumed)
Method: SPR binding studies were performed on a ForteBio Pioneer FE SPR system. In brief, a SADH Streptavidin in Dextran Hydrogel biosensor (ForteBio) was docked onto the flow cell and preconditioned with two injections of 10 mM NaOH, 1 M NaCl for 1 min at 50 μL/min. […] Empty channel 2 served as the reference control. After achieving a stable baseline, a concentration series (200 μM-0.01 μM) of peptide was prepared in final running buffer (100 mM Tris-HCl, 200 mM NaCl, 0.05% Tween-20, 5% DMSO) and injected using the OneStep gradient injection method at a flow rate of 75 μL/min. […] Raw SPR data were appropriately processed in Qdat software (ForteBio) by normalizing the baseline prior to injection, aligning the channels, subtraction of the reference channel, and blank subtraction. Kinetic data were fitted to a pseudo-first order 1:1 interaction binding model using to calculate KD. In addition, a steady-state model and Req data points were used to validate the binding affinity. Visual inspection of the SPR sensograms was performed to verify appropriate model fitting, lack of mass transport effects, return to baseline, and lack of irregular kinetics.

SMILES | Kd ([2]; read-out: SPR KD) | Ki ([1]; read-out: FP Ki) | binding and inhibitory properties (SPR/FP) in words, compared to 1907 [2] | Ki [1] | Kd ([2]; SPR KD)
CC(=O)N[C@@H](CC(N)=O)C(=O)N[C@@H](CC(C)C)C(=O)N[C@@H](CO)C(=O)N[C@@H](CCC(=O)O)C(=O)N[C@@H](CC(C)C)C(=O)N[C@@H](CC(=O)O)C(=O)N[C@@H](CCCNC(=N)N)C(=O)N[C@@H](CC(C)C)C(=O)N[C@]1(C)CCCC=CCCC[C@@](C)(C(=O)N[C@@H](CC(N)=O)C(N)=O)NC(=O)[C@H](CCC(=O)O)NC(=O)[C@H](CC(C)C)NC1=O [Peptide 1921] (Ac-NLSELDRL[R5]LE[S5]N-NH2; staple 9-12) | – | 492 µM | did not show much activity compared to 1907 | – | –
CC(=O)N[C@@H](CC(N)=O)C(=O)N[C@@H](CC(C)C)C(=O)N[C@@H](CO)C(=O)N[C@@H](CCC(=O)O)C(=O)N[C@]1(C)CCCCCCC=CCCC[C@@](C)(C(=O)N[C@@H](CC(N)=O)C(N)=O)NC(=O)[C@H](CCC(=O)O)NC(=O)[C@H](CC(C)C)NC(=O)[C@H](C)NC(=O)[C@H](C)NC(=O)[C@H](CCCNC(=N)N)NC(=O)[C@H](CC(=O)O)NC1=O [Peptide 1925, Ac-NLSER8DRAALES5N-NH2] (Ac-NLSE[R8]DRAALE[S5]N-NH2; staple 5-12) | > 200 µM | 492 µM | – | – | –
CSCC[C@@H]1NC(=O)[C@H](Cc2ccccc2)NC(=O)[C@H](CCCNC(=N)N)NC(=O)[C@H](CC(C)C)NC(=O)[C@H](CCCNC(=N)N)NC(=O)[C@H](C)NC(=O)[C@](C)(NC(=O)[C@H](CCCNC(=N)N)NC(=O)[C@H](CCCNC(=N)N)NC(C)=O)CCCCCCC=CCCC[C@@](C)(C(=O)N[C@@H](CCC(N)=O)C(=O)N[C@@H](Cc2ccccc2)C(=O)N[C@@H](Cc2ccc(O)cc2)C(N)=O)NC1=O [Peptide 1929, Ac-RRR8ARLRFMS5QFY-NH2] (Ac-RR[R8]ARLRFM[S5]QFY-NH2; staple 3-10) | 77.6 µM | > 1250 µM | did not have comparable activity to LD2-derived 1907 | – | –
CC(=O)N[C@@H](CC(N)=O)C(=O)N[C@@H](CC(C)C)C(=O)N[C@@H](CCCNC(=N)N)C(=O)N[C@@H](CCC(=O)O)C(=O)N[C@@]1(C)CCCC=CCCC[C@@](C)(C(=O)N[C@@H](CCCNC(=N)N)C(=O)N[C@@H](CCC(=O)O)C(=O)N[C@@H](CC(C)C)C(=O)N[C@@H](CC(N)=O)C(N)=O)NC(=O)[C@H](CC(C)C)NC(=O)[C@H](CCCNC(=N)N)NC(=O)[C@H](CC(=O)O)NC1=O [Peptide 1931, Ac-NLRES5DRLS5RELN-NH2] (Ac-NLRE[S5]DRL[S5]RELN-NH2; staple 5-9) | 13.7 µM | 14.5 µM | – | – | –
CC(=O)N[C@@H](CC(N)=O)C(=O)N[C@@H](CC(C)C)C(=O)N[C@]1(C)CCCCCCC=CCCC[C@@](C)(C(=O)N[C@@H](CCC(=O)O)C(=O)N[C@@H](CC(C)C)C(=O)N[C@@H](CC(N)=O)C(N)=O)NC(=O)[C@H](CC(C)C)NC(=O)[C@H](CC(C)C)NC(=O)[C@H](C)NC(=O)[C@H](CC(=O)O)NC(=O)[C@H](CC(C)C)NC(=O)[C@H](C)NC1=O [Peptide 2010, Ac-NLR8ALDALLS5ELN-NH2] (Ac-NL[R8]ALDALL[S5]ELN-NH2; staple 3-10) | – | – | – | 68.5 µM | 12.6 µM
CC(=O)N[C@@H](CC(N)=O)C(=O)N[C@@H](CC(C)C)C(=O)N[C@@H](CO)C(=O)N[C@@H](CCC(=O)O)C(=O)N[C@@H](CC(C)C)C(=O)N[C@@H](CC(=O)O)C(=O)N[C@@H](CCCNC(=N)N)C(=O)N[C@@]1(C)CCCC=CCCC[C@@](C)(C(=O)N[C@@H](CC(N)=O)C(N)=O)NC(=O)[C@H](CCC(=O)O)NC(=O)[C@H](CC(C)C)NC(=O)[C@H](CC(C)C)NC1=O [Peptide 2015] (Ac-NLSELDR[S5]LLE[S5]N-NH2; staple 8-12) | – | – | did not show much activity compared to 1907 | 114 µM | 47.5 µM

More lines, main results first:

Kd ([2]; read-out: SPR KD) | SMILES | Ki ([1]; read-out: FP Ki) | binding and inhibitory properties (SPR/FP) in words, compared to 1907 [2] | Ki [1] | Kd ([2]; SPR KD)
155 µM | CC(=O)N[C@@H](CC(N)=O)C(=O)N[C@@H](CC(C)C)C(=O)N[C@]1(C)CCCCCCC=CCCC[C@@](C)(C(=O)N[C@@H](CCC(=O)O)C(=O)N[C@@H](Cc2c[nH]c3ccccc23)C(=O)N[C@@H](CC(N)=O)C(N)=O)NC(=O)[C@H](CC(C)C)NC(=O)[C@H](CC(C)C)NC(=O)[C@H](CCCNC(=N)N)NC(=O)[C@H](CC(=O)O)NC(=O)[C@H](Cc2c[nH]c3ccccc23)NC(=O)[C@H](CCC(=O)O)NC1=O [Peptide 1933, Ac-NLR8EWDRLLS5EWN-NH2] (Ac-NL[R8]EWDRLL[S5]EWN-NH2; staple 3-10) | 281 µM | worse binding and inhibitory properties compared to 1907 | – | –
73.1 µM | CC(=O)N[C@@H](CC(N)=O)C(=O)N[C@@H](CC(C)C)C(=O)N[C@]1(C)CCCCCCC=CCCC[C@@](C)(C(=O)N[C@@H](CCC(=O)O)C(=O)N[C@@H](CC(C)C)C(=O)N[C@@H](CC(N)=O)C(N)=O)NC(=O)[C@H](Cc2c[nH]c3ccccc23)NC(=O)[C@H](CC(C)C)NC(=O)[C@H](CCCNC(=N)N)NC(=O)[C@H](CC(=O)O)NC(=O)[C@H](CC(C)C)NC(=O)[C@H](CCC(=O)O)NC1=O [Peptide 2007, Ac-NLR8ELDRLWS5ELN-NH2] (Ac-NL[R8]ELDRLW[S5]ELN-NH2; staple 3-10) | 190 µM | worse binding and inhibitory properties compared to 1907 | – | –
6.96 µM | CC(=O)N[C@@H](CC(N)=O)C(=O)N[C@@H](CC(C)C)C(=O)N[C@]1(C)CCCCCCC=CCCC[C@@](C)(C(=O)N[C@@H](CCC(=O)O)C(=O)N[C@@H](CC(C)C)C(=O)N[C@@H](CC(N)=O)C(N)=O)NC(=O)[C@H](CC(C)C)NC(=O)[C@H](CC(C)C)NC(=O)[C@H](CCCNC(=N)N)NC(=O)[C@H](CC(=O)O)NC(=O)[C@H](CC(C)C)NC(=O)[C@H](C)NC1=O [Peptide 2009, Ac-NLR8ALDRLLS5ELN-NH2] (Ac-NL[R8]ALDRLL[S5]ELN-NH2; staple 3-10) | 26.7 µM | – | – | –
20.3 µM | CC(=O)N[C@@H](CC(N)=O)C(=O)N[C@]1(C)CCCCCCC=CCCC[C@@](C)(C(=O)N[C@@H](CC(C)C)C(=O)N[C@@H](CCC(=O)O)C(=O)N[C@@H](CC(C)C)C(=O)N[C@@H](CC(N)=O)C(N)=O)NC(=O)[C@H](CC(C)C)NC(=O)[C@H](CCCNC(=N)N)NC(=O)[C@H](CC(=O)O)NC(=O)[C@H](CC(C)C)NC(=O)[C@H](CCC(=O)O)NC(=O)[C@H](CO)NC1=O [Peptide 2017, Ac-NR8SELDRLS5LELN-NH2] (Ac-N[R8]SELDRL[S5]LELN-NH2; staple 2-9) | 80.6 µM | limited activity compared to 1907 | – | –
911 µM | CC(=O)N[C@@H](CC(N)=O)C(=O)N[C@@H](CC(C)C)C(=O)N[C@@H](CO)C(=O)N[C@@H](CCC(=O)O)C(=O)N[C@]1(C)CCCC=CCCC[C@@](C)(C(=O)N[C@@H](CC(C)C)C(=O)N[C@@H](CC(C)C)C(=O)N[C@@H](CCC(=O)O)C(=O)N[C@@H](CC(C)C)C(=O)N[C@@H](CC(N)=O)C(N)=O)NC(=O)[C@H](CCCNC(=N)N)NC(=O)[C@H](CC(=O)O)NC1=O [Peptide 2022, Ac-NLSER5DRS5LLELN-NH2] (Ac-NLSE[R5]DR[S5]LLELN-NH2; staple 5-8) | 341 µM | did not show much activity compared to 1907 | – | –
